Measured values from ChEMBL document CHEMBL1137563, “3,5-bis(3'-indolyl)pyrazoles, analogues of marine alkaloid nortopsentin: synthesis and antitumor properties” (2007).
Active and inactive are the calls of the source. No cut-off for these calls is given here.

What was measured:
[1] = target: DNA topoisomerase 2-alpha (Homo sapiens) (UniProt P11388); test: Inhibition of human recombinant topoisomerase 2-mediated relaxation of supercoiled plasmid pBR322 DNA at 8 uM
DU-145 = test: Antitumor activity against DU145 cells; assay type: functional; settings: Homo sapiens
SK-OV-3 = test: Antitumor activity against SKOV3 cells; assay type: functional; settings: Homo sapiens
UACC-62 = test: Antitumor activity against UACC62 cells; assay type: functional; settings: Homo sapiens
HCT-15 = test: Antitumor activity against HCT15 cells; assay type: functional; settings: Homo sapiens
HOP-92 = test: Antitumor activity against HOP92 cells; assay type: functional; settings: Homo sapiens
COLO 205 = test: Antitumor activity against COLO205 cells; assay type: functional; settings: Homo sapiens
UACC-257 = test: Antitumor activity against UACC257 cells; assay type: functional; settings: Homo sapiens
MDA-MB-435 = test: Antitumor activity against MDA-MB-435 cells; assay type: functional; settings: Homo sapiens
[2] = Antitumor activity against HL60(TB) cells; assay type: functional, HL-60(TB); settings: Homo sapiens, HL-60
HT-29 = test: Antitumor activity against HT29 cells; assay type: functional; settings: Homo sapiens
IGROV-1 = test: Antitumor activity against IGROV1 cells; assay type: functional; settings: Homo sapiens
[3] = target: DNA topoisomerase 2-alpha (Homo sapiens) (UniProt P11388); test: Inhibition of human recombinant topoisomerase 2-mediated relaxation of supercoiled plasmid pBR322 DNA at 100 uM
K562 = test: Antitumor activity against K562 cells; assay type: functional; settings: Homo sapiens
CAKI-1 = test: Antitumor activity against CAKI1 cells; assay type: functional; settings: Homo sapiens
RXF 393 = test: Antitumor activity against RXF393 cells; assay type: functional; settings: Homo sapiens
OVCAR-3 = test: Antitumor activity against OVCAR-3 cells; assay type: functional; settings: Homo sapiens
786-0 = test: Antitumor activity against 7860 cells; assay type: functional; settings: Homo sapiens
TK-10 = test: Antitumor activity against TK10 cells; assay type: functional; settings: Homo sapiens
RPMI-8226 = test: Antitumor activity against RPMI8226 cells; assay type: functional; settings: Homo sapiens
BT-549 = test: Antitumor activity against BT549 cells; assay type: functional; settings: Homo sapiens
MDA-MB-231 = test: Antitumor activity against MDA-MB-231 cells; assay type: functional; settings: Homo sapiens
OVCAR-5 = test: Antitumor activity against OVCAR5 cells; assay type: functional; settings: Homo sapiens
NCI-H322M = test: Antitumor activity against NCI-H322M cells; assay type: functional; settings: Homo sapiens
SK-MEL-28 = test: Antitumor activity against SK-MEL-28 cells; assay type: functional; settings: Homo sapiens
A498 = test: Antitumor activity against A498 cells; assay type: functional; settings: Homo sapiens
A549 = test: Antitumor activity against A549 cells; assay type: functional; settings: Homo sapiens
M14 = test: Antitumor activity against M14 cells; assay type: functional; settings: Homo sapiens
SK-MEL-2 = test: Antitumor activity against SK-MEL-2 cells; assay type: functional; settings: Homo sapiens
UO-31 = test: Antitumor activity against UO31 cells; assay type: functional; settings: Homo sapiens
NCI-H226 = test: Antitumor activity against NCI-H226 cells; assay type: functional; settings: Homo sapiens
Hs-578T = test: Antitumor activity against HS578T cells; assay type: functional; settings: Homo sapiens
SW-620 = test: Antitumor activity against SW620 cells; assay type: functional; settings: Homo sapiens
KM12 = test: Antitumor activity against KM12 cells; assay type: functional; settings: Homo sapiens
SNB-75 = test: Antitumor activity against SNB75 cells; assay type: functional; settings: Homo sapiens
Malme-3M = test: Antitumor activity against MALME-3M cells; assay type: functional; settings: Homo sapiens
ACHN = test: Antitumor activity against ACHN cells; assay type: functional; settings: Homo sapiens
NCI-H460 = test: Antitumor activity against NCI-H460 cells; assay type: functional; settings: Homo sapiens
SNB-19 = test: Antitumor activity against SNB19 cells; assay type: functional; settings: Homo sapiens
U-251 = test: Antitumor activity against U251 cells; assay type: functional; settings: Homo sapiens
SR = test: Antitumor activity against SR cells; assay type: functional; settings: Homo sapiens
NCI-H23 = test: Antitumor activity against NCI-H23 cells; assay type: functional; settings: Homo sapiens
OVCAR-4 = test: Antitumor activity against OVCAR4 cells; assay type: functional; settings: Homo sapiens
OVCAR-8 = test: Antitumor activity against OVCAR8 cells; assay type: functional; settings: Homo sapiens
HCC 2998 = test: Antitumor activity against HCC2998 cells; assay type: functional; settings: Homo sapiens
CCRF-CEM = test: Antitumor activity against CCRF-CEM cells; assay type: functional; settings: Homo sapiens
T47D = test: Antitumor activity against T47D cells; assay type: functional; settings: Homo sapiens
EKVX = test: Antitumor activity against EKVX cells; assay type: functional; settings: Homo sapiens
MCF7 = test: Antitumor activity against MCF7 cells; assay type: functional; settings: Homo sapiens
MOLT-4 = test: Antitumor activity against MOLT4 cells; assay type: functional; settings: Homo sapiens
SK-MEL-5 = test: Antitumor activity against SK-MEL-5 cells; assay type: functional; settings: Homo sapiens
PC-3 = test: Antitumor activity against PC3 cells; assay type: functional; settings: Homo sapiens
SF-268 = test: Antitumor activity against SF268 cells; assay type: functional; settings: Homo sapiens
HCT-116 = test: Antitumor activity against HCT116 cells; assay type: functional; settings: Homo sapiens
HOP-62 = test: Antitumor activity against HOP62 cells; assay type: functional; settings: Homo sapiens
SF-295 = test: Antitumor activity against SF295 cells; assay type: functional; settings: Homo sapiens
LOX IMVI = test: Antitumor activity against LOX-IMVI cells; assay type: functional; settings: Homo sapiens
NCI-H522 = test: Antitumor activity against NCI-H522 cells; assay type: functional; settings: Homo sapiens
NCI/ADR-RES = test: Antitumor activity against NCI/ADRRES cells; assay type: functional; settings: Homo sapiens
SF-539 = test: Antitumor activity against SF539 cells; assay type: functional; settings: Homo sapiens
SN12C = test: Antitumor activity against SN12C cells; assay type: functional; settings: Homo sapiens
[4] = target: DNA topoisomerase 2-alpha (Homo sapiens) (UniProt P11388); test: Inhibition of human recombinant topoisomerase 2-mediated relaxation of supercoiled plasmid pBR322 DNA at 50 uM
[5] = read-out: LC50 (the source's name)

Chain of DNA topoisomerase 2-alpha (Homo sapiens) (P11388 whole entry): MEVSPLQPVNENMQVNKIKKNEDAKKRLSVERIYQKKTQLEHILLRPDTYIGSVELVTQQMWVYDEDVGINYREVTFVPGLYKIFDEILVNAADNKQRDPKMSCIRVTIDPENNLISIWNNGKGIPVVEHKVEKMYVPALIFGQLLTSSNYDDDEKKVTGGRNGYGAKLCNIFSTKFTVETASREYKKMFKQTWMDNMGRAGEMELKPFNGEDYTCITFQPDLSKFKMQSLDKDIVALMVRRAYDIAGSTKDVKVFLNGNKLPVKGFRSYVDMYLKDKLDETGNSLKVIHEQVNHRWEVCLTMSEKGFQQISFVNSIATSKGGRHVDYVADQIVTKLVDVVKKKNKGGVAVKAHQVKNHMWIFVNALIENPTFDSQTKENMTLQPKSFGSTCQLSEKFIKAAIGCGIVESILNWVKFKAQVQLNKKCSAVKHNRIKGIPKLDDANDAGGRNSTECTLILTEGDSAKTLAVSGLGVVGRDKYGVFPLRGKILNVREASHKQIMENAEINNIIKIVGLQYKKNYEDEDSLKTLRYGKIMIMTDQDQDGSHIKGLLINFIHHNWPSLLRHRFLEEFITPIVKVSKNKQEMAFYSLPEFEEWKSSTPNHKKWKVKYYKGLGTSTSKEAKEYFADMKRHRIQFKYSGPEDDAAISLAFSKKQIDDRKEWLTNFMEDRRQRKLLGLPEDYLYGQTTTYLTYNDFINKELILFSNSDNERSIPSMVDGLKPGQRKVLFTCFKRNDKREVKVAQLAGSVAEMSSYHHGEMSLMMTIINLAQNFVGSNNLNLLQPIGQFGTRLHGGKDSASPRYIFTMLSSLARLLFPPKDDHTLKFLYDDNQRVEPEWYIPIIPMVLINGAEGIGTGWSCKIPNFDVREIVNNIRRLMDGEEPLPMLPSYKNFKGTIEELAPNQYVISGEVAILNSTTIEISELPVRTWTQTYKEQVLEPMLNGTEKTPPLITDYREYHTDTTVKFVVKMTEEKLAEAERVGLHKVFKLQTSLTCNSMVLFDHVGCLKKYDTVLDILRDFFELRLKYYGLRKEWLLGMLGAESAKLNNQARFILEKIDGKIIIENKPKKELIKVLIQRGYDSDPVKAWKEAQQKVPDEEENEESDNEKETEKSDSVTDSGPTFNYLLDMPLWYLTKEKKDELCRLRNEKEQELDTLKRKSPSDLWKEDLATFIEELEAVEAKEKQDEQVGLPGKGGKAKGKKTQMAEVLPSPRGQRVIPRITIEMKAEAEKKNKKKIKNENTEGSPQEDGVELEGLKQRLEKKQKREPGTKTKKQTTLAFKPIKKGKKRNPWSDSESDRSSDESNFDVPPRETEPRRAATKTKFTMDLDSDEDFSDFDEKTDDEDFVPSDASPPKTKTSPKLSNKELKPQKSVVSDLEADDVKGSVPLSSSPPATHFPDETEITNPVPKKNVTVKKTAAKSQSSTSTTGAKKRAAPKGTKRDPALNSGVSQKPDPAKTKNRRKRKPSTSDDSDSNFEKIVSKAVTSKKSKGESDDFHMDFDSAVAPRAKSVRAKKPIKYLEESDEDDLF

Structure (SMILES): COc1cc(NS(C)(=O)=O)ccc1Nc1c2ccccc2nc2ccccc12
- Activity [1]: Active

Structure (SMILES): Cn1cc(-c2cc(-c3cn(C)c4ccc(Cl)cc34)[nH]n2)c2cc(Cl)ccc21
- GI50 (DU-145): 9.6 µM
- GI50 (SK-OV-3): 5.81 µM
- GI50 (UACC-62): 1.63 µM
- GI50 (HCT-15): 3.01 µM
- GI50 (HOP-92): 1.86 µM
- GI50 (COLO 205): 2.22 µM
- GI50 (UACC-257): 4.27 µM
- GI50 (MDA-MB-435): 2.99 µM
- GI50 [2]: 4.45 µM
- GI50 (HT-29): 3.57 µM
- GI50 (IGROV-1): 2.55 µM
- Activity [3]: Active
- GI50 (K562): 2.78 µM
- GI50 (CAKI-1): 1.7 µM
- GI50 (RXF 393): 3.03 µM
- GI50 (OVCAR-3): 4.41 µM
- GI50 (786-0): 3.41 µM
- GI50 (TK-10): 5.16 µM
- GI50 (RPMI-8226): 6.79 µM
- GI50 (BT-549): 2.03 µM
- GI50 (MDA-MB-231): 2.95 µM
- GI50 (OVCAR-5): 3.11 µM
- GI50 (NCI-H322M): 5.73 µM
- GI50 (SK-MEL-28): 4.8 µM
- GI50 (A498): 2.44 µM
- GI50 (A549): 3.24 µM
- GI50 (M14): 2.15 µM
- GI50 (SK-MEL-2): 2.34 µM
- GI50 (UO-31): 3.01 µM
- GI50 (NCI-H226): 5.29 µM
- GI50 (Hs-578T): 3.27 µM
- GI50 (SW-620): 3.52 µM
- GI50 (KM12): 3.45 µM
- GI50 (SNB-75): 4.25 µM
- GI50 (Malme-3M): 9.64 µM
- GI50 (ACHN): 3.23 µM
- GI50 (NCI-H460): 2.35 µM
- GI50 (SNB-19): 4.09 µM
- GI50 (U-251): 3.37 µM
- GI50 (SR): 2.36 µM
- GI50 (NCI-H23): 2.49 µM
- GI50 (OVCAR-4): 5.82 µM
- GI50 (OVCAR-8): 4.03 µM
- GI50 (HCC 2998): 1.71 µM
- TGI (HCC 2998): 3.84 µM
- CC50 (HCC 2998; [5]): 8.63 µM
- GI50 (CCRF-CEM): 6.4 µM
- GI50 (T47D): 4.06 µM
- GI50 (EKVX): 3.15 µM
- GI50 (MCF7): 2.64 µM
- GI50 (MOLT-4): 1.55 µM
- GI50 (SK-MEL-5): 1.79 µM
- GI50 (PC-3): 3.05 µM
- GI50 (SF-268): 5.29 µM
- GI50 (HCT-116): 3.82 µM
- GI50 (HOP-62): 7.98 µM
- GI50 (SF-295): 2.52 µM
- GI50 (LOX IMVI): 1.7 µM
- TGI (LOX IMVI): 3.8 µM
- CC50 (LOX IMVI; [5]): 8.53 µM
- GI50 (NCI-H522): 1.75 µM
- GI50 (NCI/ADR-RES): 2.25 µM
- GI50 (SF-539): 1.81 µM
- TGI (SF-539): 3.47 µM
- CC50 (SF-539; [5]): 6.62 µM

Structure (SMILES): Cn1cc(-c2cc(-c3cn(C)c4ccccc34)[nH]n2)c2ccccc21
- GI50 (DU-145): 15.6 µM
- GI50 (SK-OV-3): 31.6 µM
- GI50 (UACC-62): 16.4 µM
- GI50 (HCT-15): 8.68 µM
- GI50 (HOP-92): 2.06 µM
- GI50 (COLO 205): 7.98 µM
- GI50 (UACC-257): 80.6 µM
- GI50 [2]: 15.4 µM
- GI50 (HT-29): 5.35 µM
- GI50 (IGROV-1): 8.9 µM
- GI50 (K562): 42.1 µM
- GI50 (CAKI-1): > 100 µM
- GI50 (RXF 393): 14.7 µM
- GI50 (OVCAR-3): 28.4 µM
- GI50 (786-0): 14.1 µM
- GI50 (TK-10): 37.4 µM
- GI50 (RPMI-8226): 37.8 µM
- GI50 (BT-549): 15.9 µM
- GI50 (MDA-MB-231): 8.06 µM
- GI50 (OVCAR-5): > 100 µM
- GI50 (NCI-H322M): > 100 µM
- GI50 (SK-MEL-28): > 100 µM
- GI50 (A498): 19.6 µM
- GI50 (A549): 16.3 µM
- GI50 (M14): > 100 µM
- GI50 (SK-MEL-2): 57.5 µM
- GI50 (UO-31): 37.6 µM
- GI50 (NCI-H226): 19.8 µM
- GI50 (Hs-578T): 18.5 µM
- GI50 (SW-620): > 100 µM
- GI50 (KM12): 4.58 µM
- GI50 (SNB-75): 18.4 µM
- GI50 (Malme-3M): 93.1 µM
- GI50 (ACHN): 7.67 µM
- GI50 (NCI-H460): 4.48 µM
- GI50 (SNB-19): 27 µM
- GI50 (SN12C): 1.95 µM
- GI50 (U-251): 12.9 µM
- GI50 (SR): 3.46 µM
- GI50 (NCI-H23): 22 µM
- GI50 (OVCAR-4): 34.9 µM
- GI50 (OVCAR-8): 28.8 µM
- GI50 (HCC 2998): 4.74 µM
- GI50 (CCRF-CEM): 14.4 µM
- GI50 (T47D): 79.7 µM
- Activity [4]: Active
- GI50 (EKVX): 27.2 µM
- GI50 (MCF7): 3.95 µM
- GI50 (MOLT-4): 4.75 µM
- GI50 (SK-MEL-5): 13.1 µM
- GI50 (PC-3): 8.11 µM
- GI50 (SF-268): 16 µM
- GI50 (HCT-116): 19 µM
- GI50 (HOP-62): 17.3 µM
- GI50 (SF-295): 17.1 µM
- GI50 (LOX IMVI): 5.38 µM
- GI50 (NCI-H522): 22.1 µM
- GI50 (NCI/ADR-RES): 27.6 µM
- GI50 (SF-539): 16.2 µM
